Measured values as given in the supplement of paper PMC11208160.

Assay: recombinant UMI read abundance after kanamycin selection (control-corrected) (log10(CPM+1)); higher = more efficient recombination; extreme values may be limits of the assay; sequences stand for … in AGTGCAGAGAAAATCGGCCAGTTTTCTCTGCCTGCAGTCCGCATGCCGTGGGACCCCTTGGGTTCTAACCTGTTGCCTAGATTTATGCAGCGGACTGCCTTTCTCCCAAAGTGATAAACCGG…AGGTTGGTTTCACT; site = the 11-nt donor
In short: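 The measure is log10(CPM+1) for recombinant UMIs. These were PCR-amplified across the donor–target junction and sequenced after Escherichia coli carrying a donor and donor-binding-loop pair library and a target plasmid with T7-inducible IS621 bridge recombinase was plated on IPTG (0.07 mM) plus kanamycin or unselected. CPM were averaged over two replicates and scaled by control-derived factors.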
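Also: IS621 bridge recombinase in Escherichia coli cells against a fixed T5 target plasmid.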

Sequence | recombinant UMI read abundance (log10)
TCATACCCATGGACCGGTTTTCCCGGTAATCCGTATTTGTG (site TCATACCCTCA) | 0
TCATACTCATGGACCGGTTTTCCCGGTAATCCGTATTTGGA (site TCATACTCTTA) | 0.26
TCATACTCATGGACCGGTTTTCCCGGTAATCCGTATTTGGA (site TCATACTCTTC) | 1.76
TCATACTCATGGACCGGTTTTCCCGGTAATCCGTATTTGGA (site TCATACTCTTG) | 0
TCATACTCATGGACCGGTTTTCCCGGTAATCCGTATTTGGA (site TCATACTCTTT) | 1.17
TCATACTCATGGACCGGTTTTCCCGGTAATCCGTATTTGTA (site TCATACTCTTA) | 1.51
TCATACTCATGGACCGGTTTTCCCGGTAATCCGTATTTGTA (site TCATACTCTTC) | 0.00471
TCATACTCATGGACCGGTTTTCCCGGTAATCCGTATTTGTA (site TCATACTCTTG) | 0
TCATACTCATGGACCGGTTTTCCCGGTAATCCGTATTTGTA (site TCATACTCTTT) | 0.299
TCATAGACATGGACCGGTTTTCCCGGTAATCCGTATTTGAC (site TCATAGACTGT) | 0.421
TCATAGGCATGGACCGGTTTTCCCGGTAATCCGTATTTGTT (site TCATAGGCTAA) | 1.27
TCATAGTCATGGACCGGTTTTCCCGGTAATCCGTATTTGCA (site TCATAATCTTG) | 2.41
TCATAGTCATGGACCGGTTTTCCCGGTAATCCGTATTTGCA (site TCATACTCTTG) | 0.653
TCATAGTCATGGACCGGTTTTCCCGGTAATCCGTATTTGCA (site TCATAGTCTTG) | 2.25
TCATAGTCATGGACCGGTTTTCCCGGTAATCCGTATTTGCA (site TCATATTCTTG) | 0
TCATCCTCATGGACCGGTTTTCCCGGTAATCCGTATTTGAA (site TCATCCTCTTT) | 1.05
TCATCGTCATGGACCGGTTTTCCCGGTAATCCGTATTTGAA (site TCATCGTCTTT) | 0.467
TCATGCCCATGGACCGGTTTTCCCGGTAATCCGTATTTGGC (site TCATGCCCTGC) | 0
TCATTATCATGGACCGGTTTTCCCGGTAATCCGTATTTGCA (site TCATTATCTTG) | 1.7
TCATTCTCATGGACCGGTTTTCCCGGTAATCCGTATTTGCT (site TCATTCTCTAG) | 0.981
TCATTGCCATGGACCGGTTTTCCCGGTAATCCGTATTTGAG (site TCATTGCCTCT) | 0.00408
TCATTTACATGGACCGGTTTTCCCGGTAATCCGTATTTGGA (site TCATTTACTTC) | 0.164
TCCAATACATGGACCGGTTTTCCCGGTAATCCGTATTTGCC (site TCCAATACTGG) | 0

Sequence | recombinant UMI read abundance (log10)
TCCAATACATGGACCGGTTTTCCCGGTAATCCGTATTTGCC (site TCCAATCCTGG) | 0
TCCAATACATGGACCGGTTTTCCCGGTAATCCGTATTTGCC (site TCCAATGCTGG) | 0
TCCAATACATGGACCGGTTTTCCCGGTAATCCGTATTTGCC (site TCCAATTCTGG) | 0
TCCAATCCATGGACCGGTTTTCCCGGTAATCCGTATTTGCC (site TCCAATACTGG) | 0
TCCAATCCATGGACCGGTTTTCCCGGTAATCCGTATTTGCC (site TCCAATCCTGG) | 0
TCCAATCCATGGACCGGTTTTCCCGGTAATCCGTATTTGCC (site TCCAATGCTGG) | 0
TCCAATCCATGGACCGGTTTTCCCGGTAATCCGTATTTGCC (site TCCAATTCTGG) | 0
TCCAATTCATGGACCGGTTTTCCCGGTAATCCGTATTTGGC (site TCCAATTCTGA) | 0
TCCAATTCATGGACCGGTTTTCCCGGTAATCCGTATTTGGC (site TCCAATTCTGC) | 0
TCCAATTCATGGACCGGTTTTCCCGGTAATCCGTATTTGGC (site TCCAATTCTGG) | 0
TCCAATTCATGGACCGGTTTTCCCGGTAATCCGTATTTGGC (site TCCAATTCTGT) | 0
TCCACCGCATGGACCGGTTTTCCCGGTAATCCGTATTTGCT (site TCCACCGCTAG) | 0
TCCACCGCATGGACCGGTTTTCCCGGTAATCCGTATTTGCT (site TCCACCGCTCG) | 0.0171
TCCACCGCATGGACCGGTTTTCCCGGTAATCCGTATTTGCT (site TCCACCGCTGG) | 0
TCCACCGCATGGACCGGTTTTCCCGGTAATCCGTATTTGCT (site TCCACCGCTTG) | 0
TCCACGCCATGGACCGGTTTTCCCGGTAATCCGTATTTGCC (site TCCACGCCTGG) | 0
TCCACTTCATGGACCGGTTTTCCCGGTAATCCGTATTTGAG (site TCCACTTCTCT) | 0.0133
TCCAGTGCATGGACCGGTTTTCCCGGTAATCCGTATTTGGT (site TCCAGTGCTAC) | 0.00561
TCCATAGCATGGACCGGTTTTCCCGGTAATCCGTATTTGTA (site TCCATAGCTTA) | 0.0478
TCCATTTCATGGACCGGTTTTCCCGGTAATCCGTATTTGCC (site TCCAATTCTGG) | 0
TCCATTTCATGGACCGGTTTTCCCGGTAATCCGTATTTGCC (site TCCACTTCTGG) | 0
TCCATTTCATGGACCGGTTTTCCCGGTAATCCGTATTTGCC (site TCCAGTTCTGG) | 0
TCCCAATCATGGACCGGTTTTCCCGGTAATCCGTATTTGTG (site TCCCAATCTCA) | 0.00796

Sequence | recombinant UMI read abundance (log10)
TCCCACCCATGGACCGGTTTTCCCGGTAATCCGTATTTGAG (site TCCCACCCTCT) | 0.00907
TCCCATCCATGGACCGGTTTTCCCGGTAATCCGTATTTGGC (site TCCCATCCTGC) | 0
TCCCCAACATGGACCGGTTTTCCCGGTAATCCGTATTTGTC (site TCCCCAACTGA) | 0
TCCCCTGCATGGACCGGTTTTCCCGGTAATCCGTATTTGAT (site TCCCCTGCTAT) | 0.00458
TCCCGACCATGGACCGGTTTTCCCGGTAATCCGTATTTGAG (site TCCCGACCTCT) | 0.00764
TCCCGGACATGGACCGGTTTTCCCGGTAATCCGTATTTGTC (site TCCCGGACTGA) | 0.905
TCCCGTTCATGGACCGGTTTTCCCGGTAATCCGTATTTGAA (site TCCCGTTCTTT) | 0
TCCCTACCATGGACCGGTTTTCCCGGTAATCCGTATTTGAT (site TCCCTACCTAT) | 0
TCCCTTCCATGGACCGGTTTTCCCGGTAATCCGTATTTGAG (site TCCCTTCCTCT) | 0.0101
TCCGATGCATGGACCGGTTTTCCCGGTAATCCGTATTTGTT (site TCCGATGCTAA) | 0
TCCGGGCCATGGACCGGTTTTCCCGGTAATCCGTATTTGAC (site TCCGGGCCTGT) | 0
TCCGTCCCATGGACCGGTTTTCCCGGTAATCCGTATTTGCA (site TCCGTCCCTTG) | 0
TCCTAATCATGGACCGGTTTTCCCGGTAATCCGTATTTGTT (site TCCTAATCTAA) | 0
TCCTAGACATGGACCGGTTTTCCCGGTAATCCGTATTTGGG (site ACCTAGACTCC) | 0.034
TCCTAGACATGGACCGGTTTTCCCGGTAATCCGTATTTGGG (site CCCTAGACTCC) | 0.0212
TCCTAGACATGGACCGGTTTTCCCGGTAATCCGTATTTGGG (site GCCTAGACTCC) | 0.0199
TCCTAGACATGGACCGGTTTTCCCGGTAATCCGTATTTGGG (site TCCTAGACTCC) | 0.00458
TCCTAGTCATGGACCGGTTTTCCCGGTAATCCGTATTTGTA (site TCCTAGTCTTA) | 0.256
TCCTATACATGGACCGGTTTTCCCGGTAATCCGTATTTGGA (site TCCTATACTTC) | 0.0113
TCCTCATCATGGACCGGTTTTCCCGGTAATCCGTATTTGGA (site TCCTCATCTTC) | 0.00521
TCCTTATCATGGACCGGTTTTCCCGGTAATCCGTATTTGTT (site TCCTTATCTAA) | 0
TCCTTTGCATGGACCGGTTTTCCCGGTAATCCGTATTTGTG (site TCCTTTGCTCA) | 0.0203
